Laboratory results from US9326513B2, “Fungicidal compositions” (Syngenta Participations AG, priority 2011, dated 2016).

Legend:
[1] = tested on: Monographella nivalis (syn. Microdochium nivale, Fusarium nivale); assay: Monographella nivalis (snow mould, foot rot of cereals), PDB microtiter plate, visual after 72 hrs; format: cell-based; settings: applied alone
Botrytis cinerea = Botrytis cinerea (gray mould), PDB microtiter plate, visual after 72 hrs; format: cell-based
[2] = tested on: Puccinia recondita f. sp. tritici; assay: Puccinia recondita f. sp. tritici / wheat / leaf disc preventative (brown rust); format: in vivo; settings: foliar, compared to untreated control leaf disks, read-out: disease control
Source text: Puccinia recondita f. sp. tritici/Wheat/Leaf Disc Preventative (Brown Rust) Wheat leaf segments cv. Kanzler were placed on agar in multiwell plates (24-well format) and sprayed with the formulated test compound diluted in water. The leaf disks were inoculated with a spore suspension of the fungus 1 day after application.

Pyrenophora teres = Pyrenophora teres / barley / leaf disc preventative (net blotch); format: in vivo; settings: foliar, compared to untreated control leaf disks, read-out: disease control
Source text: Pyrenophora teres/Barley/Leaf Disc Preventative (Net Blotch) Barley leaf segments cv. Hasso were placed on agar in a multiwell plate (24-well format) and sprayed with the formulated test compound diluted in water. The leaf segments were inoculated with a spore suspension of the fungus 2 days after application.

[3] = tested on: Blumeria graminis f. sp. tritici (Erysiphe graminis f. sp. tritici); assay: Blumeria graminis f. sp. tritici / wheat / leaf disc preventative (powdery mildew on wheat); format: in vivo; settings: foliar, compared to untreated control leaf disks, read-out: disease control
Method in brief: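 Preventative leaf-disc test: compound (200 ppm) was sprayed onto cv. Kanzler wheat segments, which were dusted with conidia from infected plants 1 day after application. After incubation at 20° C and 60% rh, disease control relative to untreated segments was rated 6-8 days after application.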

[4] = tested on: Puccinia recondita f. sp. tritici; assay: Puccinia recondita f. sp. tritici / wheat / leaf disc curative (brown rust); format: in vivo; settings: foliar, compared to untreated control leaf disks, read-out: disease control
Procedure: Puccinia recondita f. sp. tritici/Wheat/Leaf Disc Curative (Brown Rust) Wheat leaf segments cv. Kanzler are placed on agar in multiwell plates (24-well format). The leaf segments are inoculated with a spore suspension of the fungus. Plates were stored in darkness at 19° C. and 75% rh. The formulated test compound diluted in water was applied 1 day after inoculation.

Molecule	pest or weed control at 200 ppm [2] [%]	pest or weed control at 200 ppm (Pyrenophora teres) [%]	pest or weed control at 200 ppm [3] [%]	pest or weed control at 200 ppm [4] [%]	other results
Abamectin	–	–	–	–	Activity (%) ([1]; 5 ppm): 0%; Activity (%) ([1]; 10 ppm): 0%; Activity (%) ([1]; 20 ppm): 50%; Activity (%) ([1]; rate 0.15625 ppm): 0%; Activity (%) ([1]; rate 0.3125 ppm): 0%; Activity (%) ([1]; rate 0.625 ppm): 0%; Activity (%) ([1]; rate 1.25 ppm): 0%; Activity (%) ([1]; rate 2.5 ppm): 0%; Activity (%) (Botrytis cinerea; alone, rate 1.25 ppm): 0%; Activity (%) (Botrytis cinerea; alone, rate 2.5 ppm): 0%; Activity (%) (Botrytis cinerea; alone, rate 5 ppm): 0%; Activity (%) (Botrytis cinerea; alone, rate 10 ppm): 0%; Activity (%) (Botrytis cinerea; alone, rate 20 ppm): 0%
[Mn+2].[O-2] [Manganese oxide]	–	–	–	–	Activity (%) ([1]; rate 0.15625 ppm): 0%; Activity (%) ([1]; rate 0.3125 ppm): 0%; Activity (%) ([1]; rate 0.625 ppm): 0%; Activity (%) ([1]; rate 1.25 ppm): 0%; Activity (%) ([1]; rate 2.5 ppm): 0%
[Cu+2].[OH-].[OH-] [Copper hydroxide]	–	–	–	–	Activity (%) ([1]; rate 0.15625 ppm): 0%; Activity (%) ([1]; rate 0.3125 ppm): 0%; Activity (%) ([1]; rate 0.625 ppm): 0%; Activity (%) ([1]; rate 1.25 ppm): 0%; Activity (%) ([1]; rate 2.5 ppm): 0%; Activity (%) ([1]; rate 5 ppm): 0%; Activity (%) (Botrytis cinerea; alone, rate 1.25 ppm): 0%; Activity (%) (Botrytis cinerea; alone, rate 2.5 ppm): 0%; Activity (%) (Botrytis cinerea; alone, rate 5 ppm): 0%
COCCOCc1nc(C(F)(F)F)ccc1C(=O)C1=C(O)C2CCC(C2)C1=O (stereo not drawn) [Bicyclopyrone]	–	–	–	–	Activity (%) ([1]; rate 0.078125 ppm): 0%; Activity (%) ([1]; rate 0.15625 ppm): 0%; Activity (%) ([1]; rate 0.3125 ppm): 0%; Activity (%) (Botrytis cinerea; alone, rate 1.25 ppm): 0%; Activity (%) (Botrytis cinerea; alone, rate 2.5 ppm): 0%; Activity (%) (Botrytis cinerea; alone, rate 5 ppm): 0%
CON=C(C(=O)OC)c1ccccc1CON=C(C)c1cccc(C(F)(F)F)c1 [Trifloxystrobin]	–	–	–	–	inhibition at 0.0125 ppm (Botrytis cinerea; Botrytis cinerea, alone, rate 0.0125 ppm): 0%; inhibition at 0.025 ppm (Botrytis cinerea; Botrytis cinerea, alone, rate 0.025 ppm): 20%; inhibition at 0.05 ppm (Botrytis cinerea; Botrytis cinerea, alone, rate 0.05 ppm): 50%; inhibition at 0.1 ppm (Botrytis cinerea; Botrytis cinerea, alone, rate 0.1 ppm): 50%; inhibition at 0.5 ppm (Botrytis cinerea; Botrytis cinerea, alone, rate 0.5 ppm): 50%; inhibition at 1 ppm (Botrytis cinerea; Botrytis cinerea, alone, rate 1 ppm): 50%; inhibition at 2 ppm (Botrytis cinerea; Botrytis cinerea, alone, rate 2 ppm): 50%
N#Cc1c(Cl)c(Cl)c(Cl)c(C#N)c1Cl [Chlorotalonil]	–	–	–	–	Activity (%) (Botrytis cinerea; alone, rate 0.0625 ppm): 0%; Activity (%) (Botrytis cinerea; alone, rate 0.125 ppm): 0%; Activity (%) (Botrytis cinerea; alone, rate 0.25 ppm): 20%
COC(=O)Nc1nc2ccccc2[nH]1 [Carbendazim]	–	–	–	–	inhibition at 0.015625 ppm ([1]; Monographella nivalis, rate 0.015625 ppm): 0%; inhibition at 0.03125 ppm ([1]; Monographella nivalis, rate 0.03125 ppm): 0%; inhibition at 0.0625 ppm ([1]; Monographella nivalis, rate 0.0625 ppm): 0%
N#Cc1c(Cl)c(Cl)c(Cl)c(C#N)c1Cl [Chlorothalonil]	–	–	–	–	inhibition at 0.03125 ppm ([1]; Monographella nivalis, 0.03125 ppm): 0%; inhibition at 0.0625 ppm ([1]; Monographella nivalis, 0.0625 ppm): 20%; inhibition at 0.125 ppm ([1]; Monographella nivalis, 0.125 ppm): 70%
CC12CC1(C)C(=O)N(c1cc(Cl)cc(Cl)c1)C2=O (stereo not drawn) [Procymidone]	–	–	–	–	inhibition at 1.25 ppm (Botrytis cinerea; Botrytis cinerea, alone, rate 1.25 ppm): 0%; inhibition at 2.5 ppm (Botrytis cinerea; Botrytis cinerea, alone, rate 2.5 ppm, read-out: Activity (%)): 50%; inhibition at 0.3125 ppm (Botrytis cinerea; Botrytis cinerea, single compound, rate 0.3125 ppm): 0%; inhibition at 0.625 ppm (Botrytis cinerea; Botrytis cinerea, single compound, rate 0.625 ppm): 0%; inhibition at 1.25 ppm (Botrytis cinerea; Botrytis cinerea, single compound, rate 1.25 ppm): 0%
CCN(C)/C=N/c1cc(Br)c(OCc2ccsc2)nc1C [Q.208]	≥ 50	≥ 50	≥ 50	≥ 50	–
CCN(C)/C=N/c1cc(Br)c(OC(C)Cc2ccccc2C)nc1C (stereo not drawn) [Q.353]	≥ 50	≥ 50	≥ 50	≥ 50	–
CCN(C)/C=N/c1cc(Br)c(OCc2ccccc2C(F)F)nc1C [Q.289]	≥ 50	≥ 50	≥ 50	≥ 50	–
CCN(C)/C=N/c1cc(Br)c(OC(C)c2cc(C)no2)nc1C (stereo not drawn) [Q.074]	≥ 50	≥ 50	≥ 50	≥ 50	–
CCN(C)/C=N/c1cc(Br)c(OC2CCC(Cc3ccccc3)CC2)nc1C (stereo not drawn) [Q.119]	≥ 50	≥ 50	≥ 50	≥ 50	–
CCN(C)/C=N/c1cc(Br)c(OCc2ccc(OC)nc2)nc1C [Q.115]	≥ 50	≥ 50	≥ 50	≥ 50	–
CCC(Oc1ccc(/N=C/N(C)C(C)C)c(C)n1)c1cc(C)cc(C)c1 (stereo not drawn) [Q.361]	≥ 50	≥ 50	≥ 50	≥ 50	–
CCN(C)/C=N/c1cc(Br)c(OCCc2ccccc2C)nc1C [Q.349]	≥ 50	≥ 50	≥ 50	≥ 50	–
CCN(C)/C=N/c1cc(Br)c(OC(C)C2CCCc3ccccc32)nc1C (stereo not drawn) [Q.227]	≥ 50	≥ 50	≥ 50	≥ 50	–
CCN(C)/C=N/c1cc(C)c(OCCCC(C)C)nc1C [Q.007]	≥ 50	≥ 50	≥ 50	≥ 50	–
CCN(C)/C=N/c1cc(Br)c(OCCCC(C)O)nc1C (stereo not drawn) [Q.035]	≥ 50	≥ 50	≥ 50	≥ 50	–
CCN(C)/C=N/c1cc(Br)c(OC(C)c2ccns2)nc1C (stereo not drawn) [Q.246]	≥ 50	≥ 50	≥ 50	≥ 50	–
CCc1cc(/N=C/N(C)CC)c(C)nc1OC(C)c1cc(F)cc(F)c1 (stereo not drawn) [Q.228]	≥ 50	≥ 50	≥ 50	≥ 50	–
CCN(C)/C=N/c1cc(Br)c(OCCc2cccc(F)c2)nc1C [Q.116]	≥ 50	≥ 50	≥ 50	≥ 50	–
CCN(C)/C=N/c1cc(Br)c(OC2Cc3ccc(OC)cc3C2)nc1C (stereo not drawn) [Q.199]	≥ 50	≥ 50	≥ 50	≥ 50	–
CCN(C)/C=N/c1ccc(O[C@H]2CC[C@@H](C(C)C)CC2)nc1C [Q.183]	≥ 50	≥ 50	≥ 50	≥ 50	–
CCN(C)/C=N/c1cc(C2CC2)c(OC(C)c2cc(F)cc(F)c2)nc1C (stereo not drawn) [Q.216]	≥ 50	≥ 50	≥ 50	≥ 50	–
CCN(C)/C=N/c1cc(Br)c(O[C@@H](C)c2cc(F)cc(F)c2)nc1C [Q.260]	≥ 50	≥ 50	≥ 50	≥ 50	–
CCN(C)/C=N/c1cc(Br)c(OCc2cccc(F)c2)nc1C [Q.176]	≥ 50	≥ 50	≥ 50	≥ 50	–
CCN(C)/C=N/c1cc(Br)c(OC(C)CC(C)C)nc1C (stereo not drawn) [Q.392]	≥ 50	≥ 50	≥ 50	≥ 50	–
CCN(C)/C=N/c1ccc(O[C@H]2CC[C@H](CC)CC2)nc1C [Q.380]	≥ 50	≥ 50	≥ 50	≥ 50	–
